Measured values from patent publication US7208505B2, “β3 adrenergic agonists” (Eli Lilly and Company, priority 2001, dated 2007).

These compounds were tested against T1, human β3 adrenergic receptor (Homo sapiens, UniProt P13945) (assay: whole cell receptor coupled c-AMP assay (Emax relative to isoproterenol)). Settings: % intrinsic activity relative to isoproterenol; transfected CHO cells.
T1 construct: expressed in transfected cells
Format: cell-based
Description: The genes encoding the human β1-adrenergic receptor (Frielle et al., Proc. Natl. Acad. Sci., 84:7920–7924, 1987), the human β2-adrenergic receptor (Kobika et al., Proc. Natl. Acad. Sci., 84:46–50, 1987, Emorine et al., Proc. Natl. Acad. Sci., 84:6995–6999, 1987) and the human β3 adrenergic receptor (Granneman et al., Molecular Pharmacology, 44(2):264–70, 1993) are individually subcloned into a phd expression vector (Grinnell et al., Bio/Technology, 5:1189–1192, 1987) and transfected into the DXB-11 Chinese hamster ovary (CHO) cell line by calcium phosphate precipitation methodology. The stably transfected cells are grown to 95% confluency in 95% Dulbecco's modified Eagles Medium (DMEM), 5% fetal bovine serum and 0.01% proline. Media is removed and the cells are washed with phosphate buffered (pH 7.4) saline (without magnesium and calcium). Cells are then lifted using an enzyme free cell dissociation solution (Specialty Media, Lavallette, N.J.) and pelleted by centrifugation.
Cells from each of the above cell lines are resuspended and added (20,000/well) to a 96-well plate. Cells are incubated at 37° C. with representative compounds of the invention for 20 minutes in buffer (Hank's balanced salt solution, 10 mM HEPES, 0.1% BSA, 1 mM L-ascorbic acid, 0.2% dimethyl sulfoxide, 1 mM 3-isobutyl-1-methylxanthine, pH 7.4). After halting the incubation with quench buffer (50 mM Na Acetate, 0.25% Triton X-100, pH 5.8), the c-AMP level is quantified by scintillation proximity assay (SPA) using a modification of the commercially available c-AMP kit (Amersham, Arlington Heights, Ill.) with rabbit anti-cAMP antibody (ICN Biomedicals, Aurora, Ohio) for the kit.
Sigmoidal dose response curves, from the whole cell receptor coupled c-AMP assay are fit to a four parameter logistic equation using non linear regression: y=(a−d)/(1+(Dose/c)^b)+d where a and d are responses at zero and maximal dose, b is the slope factor and c is the EC50 as previously described (DeLean et al., Am. J. Physiol., 235, E97-E102, 1978). EC50 is assessed as the concentration producing 50% of the maximum response to each agonist.
Isoproterenol is accepted in the art as a non-selective β3 agonist and is widely used as a comparator in evaluating the activity of compounds. See Trends in Pharm. Sci., 15:3, 1994. The % intrinsic activity (Emax) of representative compounds of the invention is assessed relative to isoproterenol by the compound's maximal response divided by the isoproterenol maximal response times 100.

T1 sequence (P13945 whole entry): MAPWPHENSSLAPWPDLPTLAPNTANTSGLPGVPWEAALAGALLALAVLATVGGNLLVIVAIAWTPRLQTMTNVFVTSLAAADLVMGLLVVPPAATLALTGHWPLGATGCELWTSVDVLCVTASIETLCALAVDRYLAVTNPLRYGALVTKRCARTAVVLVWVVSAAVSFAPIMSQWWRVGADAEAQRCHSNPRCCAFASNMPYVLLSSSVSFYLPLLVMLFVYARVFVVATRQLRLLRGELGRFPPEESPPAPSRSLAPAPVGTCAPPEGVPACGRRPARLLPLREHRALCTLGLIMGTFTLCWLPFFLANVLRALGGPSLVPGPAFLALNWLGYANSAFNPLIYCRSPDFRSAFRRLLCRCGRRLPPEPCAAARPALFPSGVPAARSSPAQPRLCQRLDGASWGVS

| SMILES | Emax |
| --- | --- |
| C[C@@H](Cc1c[nH]c2c(F)cc(F)cc12)NC[C@H](O)COc1ccccc1-c1cccs1 [Example 194] | 25.6% |

Same assay, conditions: % intrinsic activity: maximal response divided by isoproterenol maximal response times 100; transfected CHO cells; average of at least 3 runs

| SMILES | Emax (%) ± SEM |
| --- | --- |
| CC(C)(Cc1c[nH]c2c(-c3cccc(C(F)(F)F)c3)cccc12)NC[C@H](O)COc1ccccc1-n1cccc1 [Example 39] | 71.7 ± 3.0% |
| C[C@H](CN1CCc2ccccc21)NC[C@H](O)COc1ccccc1-c1ccon1 [Example 129] | 35.2 ± 3.3% |
| CC(C)(Cc1c[nH]c2c(OCC#N)cccc12)NC[C@H](O)COc1ccccc1-c1ccsc1.Cl [Example 52] | 74.0 ± 3.1% |
| CC(C)(Cc1c[nH]c2c(-c3ccc(C(F)(F)F)cc3)cccc12)NC[C@H](O)COc1ccccc1-c1ccon1 [Example 105] | 69.1 ± 3.8% |
| Cc1csc(-c2ccccc2OC[C@@H](O)CNC(C)(C)Cc2c[nH]c3c(OCC#N)cccc23)c1.O=C(O)C(F)(F)F [Example 22] | 66.0 ± 0.9% |
| Cc1ccc(-c2ccccc2OC[C@@H](O)CNC(C)(C)Cc2c[nH]c3ccccc23)s1.O=C(O)C(F)(F)F [Example 13] | 63.4 ± 0.3% |
| CC(C)(NC[C@H](O)COc1ccccc1-c1cccs1)C(=O)N1CCc2ccccc21 [Example 192] | 55.6 ± 6.0% |
| CC(C)(Cc1c[nH]c2c(-c3ccc(C(F)(F)F)cc3C(F)(F)F)cccc12)NC[C@H](O)COc1ccccc1-c1ccon1 [Example 111] | 86.0 ± 4.0% |
| CC(C)(Cc1c[nH]c2c(NS(=O)(=O)c3ccccc3)cccc12)NC[C@H](O)COc1ccccc1-c1cccs1 [Example 25] | 89.6 ± 10.9% |
| C[C@H](Cn1ccc2c(OCC#N)cccc21)NC[C@H](O)COc1ccccc1-c1ccns1 [Example 151] | 52.4 ± 4.3% |
| C[C@@H](Cc1c[nH]c2c(OCC#N)cccc12)NC[C@H](O)COc1ccccc1-c1nncs1 [Example 161] | 21.7 ± 3.1% |
| CC(=O)Nc1ccc(-c2cccc3c(CC(C)(C)NC[C@H](O)COc4ccccc4-c4ccon4)c[nH]c23)cc1 [Example 183] | 47.7 ± 1.6% |
| COC(=O)c1ccc(Oc2cccc3c(CC(C)(C)NC[C@H](O)COc4ccccc4-c4cccs4)c[nH]c23)nc1 [Example 117] | 67.6 ± 3.9% |
| CC(=O)c1ccc(-c2cccc3c(CC(C)(C)NC[C@H](O)COc4ccccc4-n4cccc4)c[nH]c23)cc1 [Example 50] | 38.4 ± 3.2% |
| CC(C)(Cc1c[nH]c2c(OCC#N)cccc12)NC[C@H](O)COc1ccccc1-c1nncs1 [Example 160] | 44.3 ± 3.9% |
| CC(C)(Cc1c[nH]c2ccccc12)NC[C@H](O)COc1ccc(F)cc1-c1ccno1 [Example 81] | 35.1 ± 2.1% |
| CC(C)(Cc1c[nH]c2c(NS(=O)(=O)c3ccccc3)cccc12)NC[C@H](O)COc1ccccc1-c1ccon1 [Example 26] | 70.9 ± 5.4% |
| CC(C)(Cc1c[nH]c2c(OCC(=O)NS(C)(=O)=O)cccc12)NC[C@H](O)COc1ccccc1-c1cccs1 [Example 176] | 79.0 ± 2.9% |
| CC(C)(Cc1c[nH]c2c(Oc3ccc(C#N)cn3)cccc12)NC[C@H](O)COc1ccccc1-c1ccon1 [Example 116] | 58.1 ± 1.6% |
| CC(=O)c1cccc(-c2cccc3c(CC(C)(C)NC[C@H](O)COc4ccccc4-c4ccon4)c[nH]c23)c1 [Example 47] | 69.2 ± 2.0% |
| C[C@H](Cn1ccc2ccccc21)NC[C@H](O)COc1ccccc1-c1nccs1 [Example 66] | 34.8 ± 3.2% |

The next lines start with the values.

| Emax (%) ± SEM | SMILES |
| --- | --- |
| 70.3 ± 5.7% | CC(C)(Cc1c[nH]c2c(OCC(=O)O)cccc12)NC[C@H](O)COc1ccccc1-c1cccs1.Cl [Example 226] |
| 63.9 ± 1.6% | Cc1cc(-c2ccccc2OC[C@@H](O)CNC(C)(C)Cc2c[nH]c3ccccc23)on1 [Example 36] |
| 32.1 ± 3.3% | CC(C)(CNC(=O)c1c[nH]c2ccccc12)NC[C@H](O)COc1ccccc1-c1cccs1 [Example 73] |
| 94.3 ± 4.6% | CC(C)(Cc1c[nH]c2c(OCC(=O)O)cccc12)NC[C@H](O)COc1ccccc1-c1cccs1 [Example 224] |
| 69.6 ± 4.8% | CC(C)(Cc1c[nH]c2cc(F)ccc12)NC[C@H](O)COc1ccccc1-c1cccs1 [Example 158] |
| 69.3 ± 1.3% | CC(C)(Cc1c[nH]c2cc(C=CC#N)ccc12)NC[C@H](O)COc1ccccc1-c1cccs1 [Example 190] |
| 28.3 ± 2.6% | CC(C)(Cc1c[nH]c2ccc(C#N)cc12)NC[C@H](O)COc1ccccc1-c1cccs1 [Example 74] |
| 39.1 ± 7.1% | COC(=O)c1cccc2[nH]cc(CC(C)(C)NC[C@H](O)COc3ccccc3-c3cccs3)c12 [Example 69] |
| 97.7 ± 5.9% | CC(C)(Cc1c[nH]c2c(Oc3ncccc3C#N)cccc12)NC[C@H](O)COc1ccccc1-c1cccs1 [Example 112] |
| 53.0 ± 1.8% | CC(C)(Cc1c[nH]c2cc(F)ccc12)NC[C@H](O)COc1ccccc1-c1nccs1 [Example 159] |
| 68.2 ± 2.2% | CC(=O)c1cccc(-c2cccc3c(CC(C)(C)NC[C@H](O)COc4ccccc4-c4cccs4)c[nH]c23)c1 [Example 46] |
| 66.4 ± 8.7% | CC(C)(Cc1c[nH]c2c(C=CC#N)cccc12)NCC(O)COc1ccccc1-c1cccs1 (stereo not shown) [Example 143] |
| 36.1 ± 7.6% | COC(=O)c1ccc(-c2ccccc2OC[C@@H](O)CNC(C)(C)Cc2c[nH]c3ccccc23)s1 [Example 124] |
| 74.1 ± 2.4% | CC(C)(Cc1c[nH]c2cc(C(=O)O)ccc12)NC[C@H](O)COc1ccccc1-c1ccc(C#N)s1 [Example 96] |
| 56.0 ± 1.5% | CC(C)(Cc1c[nH]c2c(F)cccc12)NC[C@H](O)COc1ccccc1-c1nccs1 [Example 171] |

Same assay, conditions: CHO, % intrinsic activity relative to isoproterenol; transfected CHO cells

| Emax | SMILES |
| --- | --- |
| 8.9% | C[C@@H](CN1CCc2cc(F)c(Cl)cc21)NC[C@H](O)COc1ccccc1-c1cccs1 [Example 195] |

Same assay, conditions: CHO, % intrinsic activity: maximal response divided by isoproterenol maximal response times 100; transfected CHO cells; average of at least 3 runs

| SMILES | Emax |
| --- | --- |
| CC(C)(Cc1c[nH]c2c(Oc3ccc(C(=O)O)cn3)cccc12)NC[C@H](O)COc1ccccc1-c1ccon1 [Example 244] | 77 ± 2.1% |
| CC(C)(Cc1c[nH]c2c(OCC(=O)O)cccc12)NC[C@H](O)COc1ccccc1-c1ccon1 [Example 223] | 56.1 ± 2.8% |
| C[C@H](Cn1ccc2c(OCC(=O)O)cccc21)NC[C@H](O)COc1ccccc1-c1ccns1 [Example 235] | 76.7 ± 4.4% |
| C[C@H](Cn1ccc2c(C(=O)O)cccc21)NC[C@H](O)COc1ccccc1-c1cccs1 [Example 242] | 59.6 ± 2.8% |
| C[C@H](Cn1ccc2cc(C(=O)O)ccc21)NC[C@H](O)COc1ccccc1-c1cccs1 [Example 243] | 48.4 ± 2.5% |

Results, then the compound that gave them:

| Emax | SMILES |
| --- | --- |
| 79.5 ± 0.6% | CC(C)(Cc1c[nH]c2c(CCC(=O)O)cccc12)NC[C@H](O)COc1ccccc1-c1cccs1 [Example 228] |
| 79.2 ± 3.4% | CC(C)(Cc1c[nH]c2c(-c3ccc(C(=O)O)cc3)cccc12)NC[C@H](O)COc1ccccc1-c1cccs1 [Example 246] |
| 81.3 ± 2.4% | CC(C)(Cc1c[nH]c2c(/C=C/c3nnn[nH]3)cccc12)NC[C@H](O)COc1ccccc1-c1cccs1 [Example 230] |
| 82.3 ± 4% | CC(C)(Cc1c[nH]c2cc(/C=C/c3nnn[nH]3)ccc12)NC[C@H](O)COc1ccccc1-c1cccs1 [Example 252] |
| 84.1 ± 1.8% | CC(C)(Cc1c[nH]c2c(-c3cccc(C(=O)O)c3)cccc12)NC[C@H](O)COc1ccccc1-c1cccs1 [Example 248] |
| 70.1 ± 0.6% | CC(C)(Cc1c[nH]c2c(C(=O)O)cccc12)NC[C@H](O)COc1ccccc1-c1cccs1 [Example 241] |
